One molecule from patent publication US20260355199A1, “COMPOSITIONS AND METHODS FOR TREATING OR PREVENTING NONALCOHOLIC STEATOHEPATITIS (NASH), ANOREXIA, DEPRESSION, ENDOMETRIOSIS, AND OTHER DISEASES OR DISORDERS” (priority 2022, published 2026) can be followed below.

The subject of one experiment is Tet3 mRNA. Nature of the experiment: Tet3 mRNA (RT-qPCR) in GT1-7 cells. The class given is cell-based, mouse. The following applies: 10 μM, 6 h. On the procedure:
For Bobcat339 treatment (FIG. 15A and FIG. 15B), GT1-7 cells grown in 24-well plates at 2×10^5 cells/well were incubated with vehicle or Bobcat339 at a final concentration of 10 μM for 6 h, followed by RNA and protein extractions. For TET3 protein stability assay (FIG. 15B), GT1-7 cells in 24-well plates at 2×10^5 cells/well were incubated with vehicle or Bobcat339 at a final concentration of 10 μM for 3 hours, followed by addition of cycloheximide (CHX, Cell Signaling, 2112) at a final concentration of […] in the presence of 10 μM of Bobcat339. Proteins were harvested at 0, 1, 2, and 3 hours after addition of CHX. For TET3 expression restoration experiments (FIG. 15C and FIG. 15D), GT1-7 or SH-SY5Y cells seeded in 24-well plates at 2×10^5 cells/well were infected with Ad-GFP or Ad-TET3 at 4000 gc/cell. Following 16 h of infection, vehicle or Bobcat339 were added at a final concentration of 10 μM. Protein and RNA were isolated 48 h later and analyzed.
Total RNAs were extracted from neuronal cells or homogenized hypothalamic arcuate nucleus tissue samples using PureLink RNA Mini Kit (Ambion, 12183025). cDNA was synthesized using PrimeScript RT Reagent Kit in a 20 μl reaction containing 0.5-1 μg of total RNA. Real-time quantitative PCR was performed in a 15 μl reaction containing 0.5-1 μl of cDNA using SsoAdvanced Universal SYBR Green Supermix in a Bio-Rad iCycler. […]
(In general: In qPCR the cycle at which signal appears reflects the starting amount.)

For another experiment, the system named is TET3. The experiment in a line: TET3 protein in the ARC of mice (immunofluorescence). Type of experiment: in vivo, mouse. On the procedure: To test whether Bobcat339 affects TET3 protein expression in AgRP neurons, Agrp-IRES-Cre::LSL-Cas9-GFP mice with GFP expression specifically in AgRP neurons were intraperitoneally injected with vehicle or Bobcat339 at 2.5 mg/kg, followed by isolation of ARCs under fed conditions (9:00-11:00) two days later. This dose was chosen based on the dose response studies. TET2 expression was widespread but was negligible in AgRP neurons.
(§1) Bobcat339 powder (Sigma-Aldrich, SML2611) was freshly dissolved in DMSO (vehicle) at a concentration of 50 mg/mL and filtered through a 0.22 micron. It was further diluted with 1×PBS to a final concentration of 0.5 mg/mL before injections. Mice were injected intraperitoneally with Bobcat339 at 1 mg/kg, 2.5 mg/kg, or 4 mg/kg.
The immunofluorescence for brain slices was conducted using previous methods (18). In brief, postfixed sections were cut into 40-μm-thick sections, followed by 5 times washing. Then the sections were incubated in blocking solution for 20 minutes and incubated with anti-TET3 (dilution 1:2000; Millipore Sigma, ABE290), anti-TET2 (dilution 1:500; Proteintech, 21207-1-AP), anti-AGRP (dilution 1:400; H-003-57, Phoenix Pharmaceuticals), anti-NPY (dilution 1:800, Cell Signaling Technology, 11976S), anti-VGAT (dilution 1:200; Abcam, Ab23592), or anti-FOS (dilution 1:1000; Biosensis, R-1751-050) overnight at 4 °C. Negative controls were performed by omitting the respective primary antibodies. The next day, sections were washed 5 times and incubated in 0.4% Triton x-100 PBS with the secondary antibody donkey anti-Rabbit IgG Fluor 594 (dilution 1:500; A-21207, Invitrogen) for 2 h at RT. The sections were coverslipped and scoped using a Keyence BZ-X700 fluorescence microscope. The fluorescence signals from GFP in AgRP neurons were detected without immunostaining.

The next experiment concerns AGRP, NPY, and VGAT. The experiment in a line: AGRP, NPY and VGAT expression in the ARC of mice. The class given is in vivo, mouse. The note with it: Bobcat339 vs. vehicle mice. On the procedure:
The GFP construct used for tagging AgRP neurons labels almost exclusively the perikaryon. The presence of AGRP, NPY, and VGAT outside the perikarya reflected the fact that these fast-firing neurons transport their neuromodulatory products rabidly to the neuronal processes.
as §1
Total RNAs were extracted from neuronal cells or homogenized hypothalamic arcuate nucleus tissue samples using PureLink RNA Mini Kit (Ambion, 12183025). cDNA was synthesized using PrimeScript RT Reagent Kit in a 20 μl reaction containing 0.5-1 μg of total RNA. Real-time quantitative PCR was performed in a 15 μl reaction containing 0.5-1 μl of cDNA using SsoAdvanced Universal SYBR Green Supermix in a Bio-Rad iCycler. Specificity was verified by melting curve analysis. The Ct values of each sample were used in the post-PCR data analysis. […]
The immunofluorescence for brain slices was conducted using previous methods (18). […] The sections were coverslipped and scoped using a Keyence BZ-X700 fluorescence microscope. The fluorescence signals from GFP in AgRP neurons were detected without immunostaining.

Experiment [1] has as its system Bobcat339-treated ABA mice. The experiment in a line: Behavioral tests (OFT, TST, FST). The class given is in vivo, mouse. An excerpt: It has been reported that AgRP neuron-specific TET3 knockdown reduces stress-like behaviors with decreased levels of circulating corticosterone. […] The open field test (OFT) has been used to assess general locomotor activity and anxiety; the tail suspension test (TST) and forced swim test (FST) have been used to evaluate behavioral despair and also to test the efficacy of new antidepressant compounds. All three tests (OFT, TST, and FST) have been used in previous studies to assess behavioral impacts of AgRP neurons in mice (Miletta, M. C. et al., 2020, Nature Metabolism, 2:1204-1211).
For all behavioral tests, mice were transferred to the testing room 1 h prior to testing for acclimation to the environment. All behavioral tests were performed in the afternoon (14:00-16:00). All behavioral apparatus was wiped with 70% ethanol prior to each trial and between trials. The open field (OF) apparatus consisted of a 56×56 cm open arena with 30 cm high walls. The mouse was placed into the center of the arena and allowed to move freely for 10 min with the activity being recorded and tracked by LimeLight 3 software (Actimetrics, Coulbourn Instruments). The software recorded and analyzed the distance and time traveled in the central (28×28 cm central area of the OF) and outer areas of the arena. The tail suspension test (TST) and the forced swim test (FST) lasted for 6 min and the total amount of immobility time during the final 4 min was measured for each animal.

Another experiment concerns let-7a. Nature of the experiment: let-7a miRNA in endometriosis, NASH liver and lung tumor tissues. Type of experiment: in vivo, mouse. The note with it: lung cancer tissues. The method, then: For let-7a qPCR, 10 ng of total RNA was reverse transcribed to cDNA in a reaction volume of 10 μl using miRCURY LNA RT Kit (QIAGEN, 339340). Quantitative real-time PCR reactions were carried out using miRCURY LNA SYBR Green PCR Kit (QIAGEN, 339346) and a let-7a-specific primer (Has-Let-7a-5p miRCURY LNA miRNA PCR Assay, QIAGEN, 339306/YP00205727) in a Bio-Rad iCycler. Gene expression levels were normalized against U6 (U6 snRNA v2 miRURY LNA miRNA PCR Assay, QIAGEN, 339306/YPO2119464, QIAGEN).

Entries after “also recorded” stand apart in the source; their conditions may differ.

In the case of `Nc1nc(=O)n(-c2cccc(-c3ccccc3)c2)cc1Cl` [Bobcat339, 4-Amino-1-[1,1′-biphenyl]-3-yl-5-chloro-2(1H)-pyrimidinone], the “Tet3 mRNA abundance” value in the experiment on Tet3 mRNA is reported as “without affecting its mRNA abundance; also recorded: without altering its mRNA abundance; also recorded: no significant difference between the two groups”. Also, the “TET3-positive AgRP neurons” value with TET3 (2.5 mg/kg i.p., two days) is recorded as “a clear decrease in the number of TET3-positive AgRP neurons; also recorded: decreased TET3 protein in AgRP neurons; also recorded: inhibited TET3 expression in AgRP neurons”. Moreover, the “TET3 protein in non-AgRP cells” value in the experiment on TET3 (decrease limited to the tip regions of the ARC even at 4 mg/kg) is “decreased TET3 protein in non-AgRP cells”. Besides, the “onset of TET3 decrease in AgRP neurons and neuron activation” value in the experiment with TET3 (following exposure to Bobcat339) is recorded as “as early as three days”. In the experiment on AGRP, NPY, and VGAT, the “AGRP, NPY, and VGAT protein in the ARC” value was “increased productions of AGRP, NPY, and VGAT; also recorded: a marked increase in their expressions”; the “Agrp, Npy and Slc32a1 mRNA in the ARC” value is “Increases in the mRNA levels of Agrp, Npy and Slc32a1; also recorded: increased expressions of Agrp, Npy, and Slc32a1”. Further, in experiment [1] (forced swim test), the FST immobility time entry is reported as “spent less immobility time”. Also, in experiment [1] (open field test), the “OFT time spent in the center zone” value is listed as “increased time spent in the center zone” and the “OFT total distance travelled” value is given as “no differences in the total distance travelled”. The TST immobility time entry in experiment [1] (tail suspension test) was “spent less immobility time”. Further, in the experiment with let-7a, the “let-7a miRNA levels in disease tissues” value was “increased”.
